Source: patent US20240239788A1, “SMALL MOLECULE INHIBITORS OF KRAS G12D MUTANT” (Merck Sharp & Dohme LLC, priority 2021, published 2024)
Read-outs that look alike come from different tables or passages of the source.

Columns and labels:
[1] = system: AsPC-1 cells containing homozygous KRAS-G12D activating mutation; experiment: Cellular phospho-ERK assay (Examples 1a-106); format: cell-based; settings: AsPC-1 cells, 2 hours, ratio of p-Erk vs total Erk, read-out: IC50 (nM) pERK (Cell)
Description: 5% CO? overnight. […] Assay plates were read on a EnVision Multimode Plate Reader (PerkinElmer) and the ratio of p-Erk vs total Erk in each well was used as the final readout.

[2] = target: KRAS G12D / Ras binding domain of C-RAF (Homo sapiens (Human), UniProt P01116, G12D); experiment: RAS:RAF-RBD binding assay (cRaf), TR-FRET; settings: biotinylated KRAS G12D, GST-C-RAF RBD
[3] = target: KRAS protein containing G12D mutation (Homo sapiens (Human), UniProt P01116, G12D); experiment: SOS-catalyzed nucleotide exchange assay (GNE), TR-FRET; format: biochemical; settings: biotinylated KRAS G12D, SOS and GTP, 60-minute incubation
Method: Compounds are added to this complex and then after a 60-minute incubation time the mixture is treated with SOS and unlabeled GTP. Small molecule inhibitors stabilize the Bodipy-GDP complex whereas the untreated protein rapidly exchanges Bodipy-GDP for unlabeled GTP resulting in reduced TR-FRET signal.
This solution is referred to as biotinylated KRAS G12D stock solution.

KRAS G12D / Ras binding domain of C-RAF, sequence (P01116 other isoform, or with tags, fused parts or gaps G12D (already in the parent)): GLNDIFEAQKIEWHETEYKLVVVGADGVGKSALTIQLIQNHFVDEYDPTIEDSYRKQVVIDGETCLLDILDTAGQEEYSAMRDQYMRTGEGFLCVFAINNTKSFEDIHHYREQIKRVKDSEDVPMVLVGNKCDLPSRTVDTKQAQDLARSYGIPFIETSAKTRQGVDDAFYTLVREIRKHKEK
KRAS protein containing G12D mutation, sequence (P01116 other isoform, or with tags, fused parts or gaps G12D (already in the parent)): as above

| IC50 [1] | SMILES | IC50 ([1]; Homo sapiens, ASPC1, 2 h) | IC50 ([2]; IC50 (nM) (cRaf)) | IC50 [3] | IC50 ([2]; read-out: IC50 (nM) (cRaf)) |
| --- | --- | --- | --- | --- | --- |
|  | Cc1c(Cl)cc2[nH]nc(C)c2c1-c1c(F)cc2c(N3C[C@H]4CC[C@@](C)(C3)N4)nc(OCC3(CN4CC[C@@H](F)C4)CC3)nc2c1F [Ex 84, 7-(6-chloro-3,5-dimethyl-1H-indazol-4-yl)-6,8-difluoro-2-((1-(((R)-3-fluoropyrrolidin-1-yl)methyl)cyclopropyl)methoxy)-4-((1S,5R)-1-methyl-3,8-diazabicyclo[3.2.1]octan-3-yl)quinazoline] | 6160 nM | 9320 nM | 156 nM |  |
|  | Cc1cc2[nH]nc(C)c2c(-c2c(F)cc3c(N4C[C@H]5CC[C@@](C)(C4)N5)nc(OCC4(CN5CC[C@@H](F)C5)CC4)nc3c2F)c1C [Ex 85, 6,8-difluoro-2-((1-(((R)-3-fluoropyrrolidin-1-yl)methyl)cyclopropyl)methoxy)-4-((1S,5R)-1-methyl-3,8-diazabicyclo [3.2.1]octan-3-yl)-7-(3,5,6-trimethyl-1H-indazol-4-yl)quinazoline] | 5620 nM | 18900 nM | 255 nM |  |
|  | Cc1cc2[nH]ncc2c(-c2c(F)cc3c(N4C[C@H]5CC[C@@](C)(C4)N5)nc(OC[C@@]45CCCN4C[C@H](F)C5)nc3c2F)c1C(F)(F)F [Ex 86, 6,8-difluoro-2-(((2R,7aS)-2-fluorotetrahydro-1H-pyrrolizin-7a(5H)-yl)methoxy)-7-(6-methyl-5-(trifluoromethyl)-1H-indazol-4-yl)-4-((1S,5R)-1-methyl-3,8-diazabicyclo [3.2.1]octan-3-yl)quinazoline] | 213 nM | 268 nM | 0.723 nM |  |
| 6640 nM | CN1CCC[C@H]1COc1nc(N2CC3CCC(C2)N3)c2cc(Cl)c(-c3cc(O)cc4ccccc34)c(F)c2n1 [Ex. 5, 4-(4-(3.8-diazabicyclo[3.2.1]octan-3-yl)-6-chloro-8-fluoro-2-(((S)-1-methylpyrrolidin-2-yl)methoxy)quinazolin-7-yl)naphthalen-2-ol] |  |  | 106 nM | 17300 nM |
|  | C[C@]12CC[C@H](CN(c3nc(OC[C@@]45CCCN4C[C@H](F)C5)nc4c(F)c(-c5cc(O)cc6cccc(Cl)c56)c(F)cc34)C1)N2 [Ex. 89, 5-chloro-4-(6,8-difluoro-2-(((2R,7aS)-2-fluorotetrahydro-1H-pyrrolizin-7a(5H)-yl)methoxy)-4-((1S,5R)-1-methyl-3,8-diazabicyclo[3.2.1]octan-3-yl)quinazolin-7-yl)naphthalen-2-ol] | 46 nM | 31.8 nM | 0.565 nM |  |
| 7130 nM | C[C@]12CC[C@H](CN(c3nc(OCC4(CN5CC[C@@H](F)C5)CC4)nc4c3CCN(c3cccc5cccc(Br)c35)C4)C1)N2 [Ex. 93, 7-(8-bromonaphthalen-1-yl)-2-((1-(((R)-3-fluoropyrrolidin-1-yl)methyl)cyclopropyl)methoxy)-4-((1S,5R)-1-methyl-3,8-diazabicyclo[3.2.1]octan-3-yl)-5,6,7,8-tetrahydropyrido[3.4-d]pyrimidine] |  |  | 437 nM | 35300 nM |
| 10800 nM | O=c1oc(-c2cc(O)cc3ccccc23)cc2nc(OCC3(CN4CCOCC4)CC3)nc(N3CC4CCC(C3)N4)c12 [Ex. 95, 4-(3.8-diazabicyclo[3.2.1]octan-3-yl)-7-(3-hydroxynaphthalen-1-yl)-2-((1-(morpholinomethyl)cyclopropyl)methoxy)-5H-pyrano[4.3-d]pyrimidin-5-one] |  |  | 73.4 nM | 15900 nM |
|  | C[C@]12CC[C@H](CN(c3nc(OC[C@@]45CCCN4C[C@H](F)C5)nc4c(F)c(-c5cc(O)cc6cccc(Cl)c56)ncc34)C1)N2 [Ex. 99, 5-chloro-4-(8-fluoro-2-(((2R,7aS)-2-fluorotetrahydro-1H-pyrrolizin-7a(5H)-yl)methoxy)-4-((1S,5R)-1-methyl-3,8-diazabicyclo[3.2.1]octan-3-yl)pyrido[4,3-d]pyrimidin-7-yl)naphthalen-2-ol] | 243 nM |  | 2.46 nM | 57.5 nM |
|  | CN(C)C[C@@]1(COc2nc(N3C[C@H]4CC[C@@](C)(C3)N4)c3cnc(-c4cc(O)cc5cccc(Cl)c45)c(F)c3n2)CC1(F)F [Ex. 100, 5-chloro-4-(2-(((R)-1-((dimethylamino)methyl)-2,2-difluorocyclopropyl)methoxy)-8-fluoro-4-((1S,5R)-1-methyl-3,8-diazabicyclo[3.2.1]octan-3-yl)pyrido[4,3-d]pyrimidin-7-yl)naphthalen-2-ol] | 99.8 nM | 89.9 nM | 1.56 nM |  |
|  | CN(C)CC1(COc2nc(N3C[C@H]4CC[C@@](C)(C3)N4)c3nnc(-c4cc(O)cc5ccccc45)cc3n2)CC1 [Ex. 101, 4-(6-((1-((dimethylamino)methyl)cyclopropyl)methoxy)-8-((1S,5R)-1-methyl-3,8-diazabicyclo[3.2.1]octan-3-yl)pyrimido[5,4-c]pyridazin-3-yl)naphthalen-2-ol] | 42200 nM | 20900 nM | 1020 nM |  |
|  | CN(C)CC1(COc2nc(N3C[C@@H]4CC[C@H]3CN4)c3cc(F)c(-c4cc(O)cc5ccccc45)c(F)c3n2)CC1 [Example 7, 4-(4-((1S,4S)-2,5-diazabicyclo[2.2.2]octan-2-yl)-2-((1-((dimethylamino)methyl)cyclopropyl)methoxy)-6,8-difluoroquinazolin-7-yl)naphthalen-2-ol] | 5020 nM | 2990 nM | 35.5 nM |  |
|  | CN(C)CC1(COc2nc(N3C[C@@H]4CC[C@](C)(C3)N4)c3cc(F)c(-c4cc(O)cc5ccccc45)c(F)c3n2)CC1 [Example 20, 4-(2-((1-((dimethylamino)methyl)cyclopropyl)methoxy)-6,8-difluoro-4-((1R,5S)-1-methyl-3,8-diazabicyclo[3.2.1]octan-3-yl)quinazolin-7-yl)naphthalen-2-ol] | 3500 nM | 14400 nM | 117 nM |  |
|  | CN(C)CC1(COc2nc(N3C[C@H]4CC[C@@](C)(C3)N4)c3cc(F)c(-c4cc(O)cc5ccccc45)c(F)c3n2)CC1 [Example 21, 4-(2-((1-((dimethyl-amino)methyl)cyclo-propyl)methoxy)-6,8-difluoro-4-((1S,5R)-1-methyl-3,8-diazabicy-clo[3.2.1]octan-3-yl)quinazolin-7-yl)naphthalen-2-ol] | 636 nM | 1980 nM | 14.4 nM |  |
|  | COC1CC2CN(c3nc(OCC4(CN(C)C)CC4)nc4c(F)c(-c5cc(O)cc6ccccc56)c(F)cc34)CC1N2 (stereo not drawn) [Example 25, 4-(2-((1-((dimethyl-amino)methyl)cyclo-propyl)methoxy)-6,8-difluoro-4-(6-methoxy-3,8-diazabicyclo[3.2.1]oc-tan-3-yl)quinazolin-7-yl)naphthalen-2-ol] | 7070 nM | 20300 nM | 454 nM |  |
|  | COC1CC2CN(c3nc(OCC4(CN(C)C)CC4)nc4c(F)c(-c5cc(O)cc6ccccc56)c(Cl)cc34)CC1N2 [Example 26, 4-(6-chloro-2-((1-((dimethylamino)meth-yl)cyclo-propyl)methoxy)-8-fluoro-4-(R,R,6-methoxy-3,8-diazabi-cyclo[3.2.1]octan-3-yl)quinazolin-7-yl)naphthalen-2-ol] | 10400 nM | 11800 nM | 358 nM |  |
|  | CN(C)CC1(COc2nc(N3CC4(C)CCC(C)(C3)N4)c3cc(F)c(-c4cc(O)cc5ccccc45)c(F)c3n2)CC1 [Example 32, 4-(4-(1,5-dimethyl-3,8-diazabicy-clo[3.2.1]octan-3-yl)-2-((1-((dimethyl-amino)methyl)cyclo-propyl)methoxy)-6,8-difluoroquinazolin-7-yl)naphthalen-2-ol] | 2260 nM | 1430 nM | 64.2 nM |  |
|  | CCC12CCC(CN(c3nc(OCC4(CN(C)C)CC4)nc4c(F)c(-c5cc(O)cc6ccccc56)c(F)cc34)C1)N2 (stereo not drawn) [Example 33, 4-(2-((1-((dimethylamino)meth-yl)cyclopro-pyl)methoxy)-4-(1-ethyl-3,8-diazabicy-clo[3.2.1]octan-3-yl)-6,8-difluoroquinazolin-7-yl)naphthalen-2-ol] | 3450 nM | 5070 nM | 88.5 nM |  |
|  | CN(C)CC1(COc2nc(N3CC4CCC(F)(C3)N4)c3cc(Cl)c(-c4cc(O)cc5ccccc45)c(F)c3n2)CC1 (stereo not drawn) [Example 34, 4-(6-chloro-2-((1-((dimethylamino)meth-yl)cyclopropyl)meth-oxy)-8-fluoro-4-(1-fluoro-3,8-diaza-bicyclo[3.2.1]octan-3-yl)quinaozlin-7-yl)naphthalen-2-ol] | 11500 nM | 38300 nM | 2560 nM |  |

| SMILES | IC50 [1] | IC50 ([1]; Homo sapiens, ASPC1, 2 h) | IC50 ([2]; IC50 (nM) (cRaf)) | IC50 [3] | IC50 ([2]; read-out: IC50 (nM) (cRaf)) |
| --- | --- | --- | --- | --- | --- |
| Cc1cc(N)nc(-c2c(F)cc3c(N4CC5CCC(C4)N5)nc(OCC4(CN5CCOCC5)CC4)nc3c2F)c1C(F)(F)F [Ex. 87, 6-(4-(3.8-diazabicyclo[3.2.1]octan-3-yl)-6,8-difluoro-2-((1-(morpholinomethyl)cyclopropyl)methoxy)quinazolin-7-yl)-4-methyl-5-(trifluoromethyl)pyridin-2-amine] | 1340 nM |  |  | 37.4 nM | 11400 nM |
| COC1CC2CN(c3nc(OCC4(CN(C)C)CC4)nc4c(F)c(-c5cc(O)cc6ccccc56)c(F)cc34)CC1N2 [Example 24, 4-(2-((1-((dimethylamino)meth-yl)cyclopropyl)meth-oxy)-6,8-difluoro-4-(6-methoxy-3,8-di-azabicyclo[3.2.1]octan-3-yl)quinazolin-7-yl)naphthalen-2-olR,R,] | 7110 nM |  |  | 280 nM | 10800 nM |
